Key:
[1] = Amlodipine content in supernatant of amlodipine salt batches (0.45 micron filtration, HPLC); type: physicochemical; settings: batches prepared by mixing; ~10-fold molar salt forming agent; polysorbate 80 in water
Method: Amlodipine salts were prepared according to the formulas in Table 1 and Table 2. The formulations in Table 1 were prepared by adding purified water to a glass container containing a magnetic stir-bar and mixing with an external magnetic stir-plate. The polysorbate 80 was added and allowed to dissolve with mixing for a minimum of 10 minutes. Amlodipine besylate was then added and dispersed in the solution with mixing for a minimum of 10 minutes. The salt forming agent was then added to the suspension and the resulting suspension was mixed for an additional 30 minutes. The amount of the added salt forming agent was approximately 10-fold the amount of amlodipine on a mole basis. A control formulation was prepared to provide a solubility value for amlodipine besylate.
The formulations in Table 2 were prepared by adding purified water to a glass container positioned in an ultrasonic bath. Mixing was initiated with an overhead mixer and impeller. The polysorbate 80 was added and allowed to dissolve with mixing for a minimum of 10 minutes. Amlodipine besylate was then added and dispersed in the solution with mixing for a minimum of 10 minutes. […]
An aliquot of each suspension was filtered through a 0.45 micron nylon filter and the supernatant analyzed by an HPLC method for amlodipine content. […] Detection was by UV absorbance at 237 nm.

[2] = Soluble amlodipine in isolated solids (purified water, pH 5.3, tumbled 66 hours, HPLC); type: physicochemical; settings: pH 5.3, aqueous buffer, thermodynamic from solid
Method: Batches 1A-1F had different amlodipine content in the supernatants than the amlodipine besylate control indicating formation of new salt forms. […] Aliquots of each solid were weighed into 15 mL polypropylene centrifuge tubes in duplicate except for batch 1A which was a single determination. Purified water was added to each tube and the pH of the resulting suspension adjusted to 5.3 with anhydrous citric acid or anhydrous sodium citrate powder as needed. A control was also prepared in duplicate containing only purified water and amlodipine besylate at pH 5.3. The tubes were capped, covered in foil to block light, and allowed to tumble end-over-end at ambient temperature for 66 hours. The suspensions were then filtered through 0.45 micron nylon filters and the resulting filtrates analyzed by HPLC for amlodipine content.

Amlodipine content in supernatant [1]: 4.80 mg/mL
solubility at 66 h ([2]; Tube 1, pH adjusted to 5.3, ambient temperature): 1080 µg/mL
solubility at 66 h ([2]; Tube 2, pH adjusted to 5.3, ambient temperature): 1080 µg/mL
Structure (SMILES): CCOC(=O)C1=C(COCCN)NC(C)=C(C(=O)OC)C1c1ccccc1Cl (stereo not drawn) [Control, Amlodipine besylate]

Source: patent US12383498B2, “Amlodipine formulations” (Azurity Pharmaceuticals, Inc., priority 2018, dated 2025)
